Here are results for twelve compounds from patent US9265253B2, “Use of macrocyclic picolinamides as fungicides” (DOW AGROSCIENCES LLC, priority 2013, dated 2016).

Like-named read-outs stand apart in the source and are kept apart here.

Common to all, as to format: in vivo
For one experiment, the system named is Leptosphaeria nodorum. The experiment is described as follows: Wheat Glume Blotch (LEPTNO) disease control. To be noted: 1 Day Protectant; for pest or weed control at 100 ppm: Parastagonospora nodorum, topical, 24 h, read-out: Disease Control LEPTNO 1 DP. The procedure:
Technical grades of materials were dissolved in acetone, which were then mixed with nine volumes of water containing 110 ppm Triton X-100. The fungicide solutions were applied onto wheat seedlings using an automated booth sprayer to run-off. All sprayed plants were allowed to air dry prior to further handling. All fungicides were evaluated using the aforementioned method for their activity vs. all target diseases. Wheat leaf blotch and brown rust activity were also evaluated using track spray applications, in which case the fungicides were formulated as EC formulations, containing 0.1% Trycol 5941 in the spray solutions. Wheat plants (variety Yuma) were grown from seed in a greenhouse in 50% mineral soil/50% soil-less Metro mix until the first leaf was fully emerged, with 7-10 seedlings per pot. These plants were inoculated with an aqueous spore suspension of Septoria tritici either prior to or after fungicide treatments. After inoculation the plants were kept in 100% relative humidity (one day in a dark dew chamber followed by two to three days in a lighted dew chamber at 20° C.) to permit spores to germinate and infect the leaf. The plants were then transferred to a greenhouse set at 20° C. for disease to develop. When disease symptoms were fully expressed on the 1st leaves of untreated plants, infection levels were assessed on a scale of 0 to 100 percent disease severity. Percent disease control was calculated using the ratio of disease severity on treated plants relative to untreated plants. Wheat plants (variety Yuma) were grown from seed in a greenhouse in 50% mineral soil/50% soil-less Metro mix until the first leaf was fully emerged, with 7-10 seedlings per pot. These plants were inoculated with an aqueous spore suspension of Leptosphaeria nodorum 24 hr after fungicide treatments. After inoculation the plants were kept in 100% relative humidity (one day in a dark dew chamber followed by two days in a lighted dew chamber at 20° C.) to permit spores to germinate and infect the leaf. The plants were then transferred to a greenhouse set at 20° C. for disease to develop. Fungicide formulation, application and disease assessment followed the procedures as described in the Example A.

For experiment [1], the system named is Blumeria graminis f. sp. hordei; Synonym: Erysiphe graminis f. sp. hordei. The experiment is described as follows: Barley Powdery Mildew (ERYSGH) disease control. To be noted: 1 Day Protectant; for Disease Control ERYSGH 1 DP: 100 ppm; for pest or weed control at 100 ppm: Blumeria graminis, 24 h, read-out: Disease Control ERYSGH 1 DP. The procedure: Technical grades of materials were dissolved in acetone, which were then mixed with nine volumes of water containing 110 ppm Triton X-100. The fungicide solutions were applied onto wheat seedlings using an automated booth sprayer to run-off. All sprayed plants were allowed to air dry prior to further handling. All fungicides were evaluated using the aforementioned method for their activity vs. all target diseases. Wheat leaf blotch and brown rust activity were also evaluated using track spray applications, in which case the fungicides were formulated as EC formulations, containing 0.1% Trycol 5941 in the spray solutions. Wheat plants (variety Yuma) were grown from seed in a greenhouse in 50% mineral soil/50% soil-less Metro mix until the first leaf was fully emerged, with 7-10 seedlings per pot. These plants were inoculated with an aqueous spore suspension of Septoria tritici either prior to or after fungicide treatments. After inoculation the plants were kept in 100% relative humidity (one day in a dark dew chamber followed by two to three days in a lighted dew chamber at 20° C.) to permit spores to germinate and infect the leaf. The plants were then transferred to a greenhouse set at 20° C. for disease to develop. When disease symptoms were fully expressed on the 1st leaves of untreated plants, infection levels were assessed on a scale of 0 to 100 percent disease severity. Percent disease control was calculated using the ratio of disease severity on treated plants relative to untreated plants. Barley seedlings (variety Harrington) were propagated in soil-less Metro mix, with each pot having 8 to 12 plants, and used in the test when first leaf was fully emerged. Test plants were inoculated by dusting with infected stock plants 24 hr after fungicide treatments. After inoculation the plants were kept in a greenhouse set at 20° C. for disease to develop. Fungicide formulation, application and disease assessment on the sprayed leaves followed the procedures as described in the Example A.

The next experiment concerns Cercospora beticola. The experiment is described as follows: Leaf Spot of Sugar Beets (CERCBE) disease control. The conditions noted are these: 1 Day Protectant, sugar beet; for pest or weed control at 100 ppm: Cercospora beticola, topical, 24 h, read-out: Disease Control CERCBE 1 DP. The procedure:
Technical grades of materials were dissolved in acetone, which were then mixed with nine volumes of water containing 110 ppm Triton X-100. The fungicide solutions were applied onto wheat seedlings using an automated booth sprayer to run-off. All sprayed plants were allowed to air dry prior to further handling. All fungicides were evaluated using the aforementioned method for their activity vs. all target diseases. Wheat leaf blotch and brown rust activity were also evaluated using track spray applications, in which case the fungicides were formulated as EC formulations, containing 0.1% Trycol 5941 in the spray solutions. Wheat plants (variety Yuma) were grown from seed in a greenhouse in 50% mineral soil/50% soil-less Metro mix until the first leaf was fully emerged, with 7-10 seedlings per pot. These plants were inoculated with an aqueous spore suspension of Septoria tritici either prior to or after fungicide treatments. After inoculation the plants were kept in 100% relative humidity (one day in a dark dew chamber followed by two to three days in a lighted dew chamber at 20° C.) to permit spores to germinate and infect the leaf. The plants were then transferred to a greenhouse set at 20° C. for disease to develop. When disease symptoms were fully expressed on the 1st leaves of untreated plants, infection levels were assessed on a scale of 0 to 100 percent disease severity. Percent disease control was calculated using the ratio of disease severity on treated plants relative to untreated plants. Sugar beet plants (variety HH88) were grown in soil-less Metro mix and trimmed regularly to maintain a uniform plant size prior to test. Plants were inoculated with a spore suspension 24 hr after fungicide treatments. Inoculated plants were kept in a dew chamber at 22° C. for 48 hr then incubated in a greenhouse set at 24° C. under a clear plastic hood with bottom ventilation until disease symptoms were fully expressed. Fungicide formulation, application and disease assessment on the sprayed leaves followed the procedures as described in the Example A.

The test system of another experiment is Phakopsora pachyrhizi. Description: Asian Soybean Rust (PHAKPA) disease control. The conditions noted are these: for pest or weed control at 25 ppm: Phakopsora pachyrhizi, topical. A digest of the protocol: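 Compounds in acetone diluted with nine volumes water containing 0.011% Tween 20, sprayed to run-off on two-week-old Williams 82 soybean seedlings, inoculated 3 days before or 1 day after treatment. Plants held 24 h in dark dew room at 22 °C, 100% RH, then at 23 °C; disease severity scored on sprayed leaves.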

Setting [2] is: 24 h, 1 Day Protectant, read-out: Disease Control PHAKPA 1DP.
Where [3] appears, read: 72 h, 3 Day Curative, read-out: Disease Control PHAKPA 3DC.

Turning to `COc1ccnc(C(=O)N[C@H]2CCC[C@H](Cc3ccc(F)cc3)[C@@H](OCC3CC3)[C@H](C)OC2=O)c1OCOC(C)=O` [Compound F98], in the experiment on Leptosphaeria nodorum (100 ppm), the “Disease Control LEPTNO 1 DP” value is “A (80-100)”. For the same compound, in experiment [1], the “Disease Control ERYSGH 1 DP” value is listed as “A (80-100)”. For the same compound, the “Disease Control CERCBE 1 DP” value with Cercospora beticola (100 ppm) is listed as “A (80-100)”. Besides, in the experiment on Phakopsora pachyrhizi (25 ppm, 1 Day Protectant), the “Disease Control PHAKPA 1DP” value is recorded as “A (80-100)”. Further, the “Disease Control PHAKPA 3DC” value with Phakopsora pachyrhizi (25 ppm, 3 Day Curative) is “A (80-100)”.
Turning to `CCCO[C@@H]1[C@@H](Cc2ccccc2)CCC[C@H](NC(=O)c2nccc(OC)c2OCOC(C)=O)C(=O)O[C@H]1C` [Compound F109], the pest or weed control at 100 ppm (in the experiment on Leptosphaeria nodorum; in experiment [1]; in the experiment on Cercospora beticola) was 80 to 100% each time. Moreover, the pest or weed control at 25 ppm in the experiment on Phakopsora pachyrhizi (setting [2]) lay in the range of 80 to 100%; in the experiment with Phakopsora pachyrhizi (setting [3]) it was 0 to 80%.
Turning to `CCOCC(=O)OCOc1c(OC)ccnc1C(=O)N[C@H]1CCC[C@H](Cc2ccccc2)[C@@H](OCC(C)C)[C@H](C)OC1=O` [Compound F172], the pest or weed control at 100 ppm (in the experiment with Leptosphaeria nodorum; in experiment [1]; in the experiment with Cercospora beticola) was 80 to 100% each time. For the same compound, the pest or weed control at 25 ppm in the experiment on Phakopsora pachyrhizi (setting [2]) fell in the range of 80 to 100%; in the experiment with Phakopsora pachyrhizi (setting [3]), 0 to 80%.
Take `COc1ccnc(C(=O)N[C@H]2CCC[C@H](Cc3ccc(F)cc3)[C@@H](OCC3CC3)[C@H](C)OC2=O)c1OC(C)=O` [Compound F67]: the pest or weed control at 100 ppm (with Leptosphaeria nodorum; in experiment [1]; with Cercospora beticola) was 80 to 100% throughout. The pest or weed control at 25 ppm was 80 to 100% with Phakopsora pachyrhizi (setting [2]) and 0 to 80% in the experiment on Phakopsora pachyrhizi (setting [3]).
Regarding `CCOCC(=O)OCOc1c(OC)ccnc1C(=O)N[C@H]1CCC[C@H](CCF)[C@@H](OCC(C)C)[C@H](C)OC1=O` [Compound F181], the pest or weed control at 100 ppm was 80 to 100% in the experiment on Leptosphaeria nodorum, 0 to 80% in experiment [1] and 0 to 80% with Cercospora beticola. The pest or weed control at 25 ppm in the experiment with Phakopsora pachyrhizi (setting [2]) and in the experiment with Phakopsora pachyrhizi (setting [3]) was 80 to 100% each time.
Regarding `CCOCC(=O)OCOc1c(OC)ccnc1C(=O)N[C@H]1CCC[C@H](Cc2ccc(F)cc2)[C@@H](OCC2CC2)[C@H](C)OC1=O` [Compound F164], the pest or weed control at 100 ppm (in the experiment on Leptosphaeria nodorum; in experiment [1]; with Cercospora beticola) was 80 to 100% in each case. In addition, the values for the pest or weed control at 25 ppm in the experiment with Phakopsora pachyrhizi (setting [2]) and in the experiment with Phakopsora pachyrhizi (setting [3]) were 80 to 100% and 0 to 80%, respectively.
With `COc1ccnc(C(=O)N[C@H]2CCC[C@H](CCF)[C@@H](OCC(C)C)[C@H](C)OC2=O)c1OCOC(C)=O` [Compound F128, ((2-(((3S,7R,8R,9S)-7-(2-fluoroethyl)-8-isobutoxy-9-methyl-2-oxooxonan-3-yl)carbamoyl)-4-methoxypyridin-3-yl)oxy)methyl acetate], the pest or weed control at 100 ppm in the experiment on Leptosphaeria nodorum is 80 to 100%; in experiment [1], 0 to 80%; in the experiment on Cercospora beticola, 80 to 100%. For the same compound, the pest or weed control at 25 ppm in the experiment with Phakopsora pachyrhizi (setting [2]) and in the experiment on Phakopsora pachyrhizi (setting [3]) was 80 to 100% each time.
In the case of `COc1ccnc(C(=O)N[C@H]2CCC[C@H](Cc3ccc(F)cc3)[C@@H](OCC3CC3)[C@H](C)OC2=O)c1OCOC(C)=O` [Compound F96], the pest or weed control at 100 ppm in the experiment with Leptosphaeria nodorum and in the experiment with Cercospora beticola was 80 to 100% in each case. In experiment [1], the “Disease Control ERYSGH 1 DP” value is recorded as “B (More than 0-Less than 80)”. Besides, in the experiment with Phakopsora pachyrhizi (25 ppm, 3 Day Curative), the “Disease Control PHAKPA 3DC” value is on record as “B (More than 0-Less than 80)”. In addition, the pest or weed control at 25 ppm in the experiment with Phakopsora pachyrhizi (setting [2]) was in the range of 80 to 100%.
In the case of `CCOCC(=O)OCOc1c(OC)ccnc1C(=O)N[C@H]1CCC[C@H](Cc2ccc(F)cc2F)[C@@H](OC(=O)c2ccco2)[C@H](C)OC1=O` [Compound F193], the pest or weed control at 100 ppm was in the range of 80 to 100% with Leptosphaeria nodorum, 0 to 80% in experiment [1] and 80 to 100% in the experiment on Cercospora beticola. Besides, the pest or weed control at 25 ppm in the experiment with Phakopsora pachyrhizi (setting [2]) and in the experiment with Phakopsora pachyrhizi (setting [3]) was 0 to 80% throughout.
With `CCOCC(=O)OCOc1c(OC)ccnc1C(=O)N[C@H]1CCC[C@H](CCOC)[C@@H](Oc2ccccc2)[C@H](C)OC1=O` [Compound F183], the pest or weed control at 100 ppm in the experiment with Leptosphaeria nodorum is 80 to 100%; in experiment [1], 0 to 80%; in the experiment with Cercospora beticola it was 0 to 80%. The pest or weed control at 25 ppm with Phakopsora pachyrhizi (setting [2]) and with Phakopsora pachyrhizi (setting [3]) was 80 to 100% in each case.
As to `CCCO[C@@H]1[C@@H](CCC(C)C)CCC[C@H](NC(=O)c2nccc(OC)c2OCOC(C)=O)C(=O)O[C@H]1C` [Compound F92], the pest or weed control at 100 ppm in the experiment with Leptosphaeria nodorum is 80 to 100%; in experiment [1], 0 to 80%; in the experiment on Cercospora beticola, 80 to 100%. The pest or weed control at 25 ppm in the experiment with Phakopsora pachyrhizi (setting [2]) and in the experiment with Phakopsora pachyrhizi (setting [3]) was 80 to 100% in each case.
Take `COc1ccnc(C(=O)N[C@H]2CCC[C@H](Cc3ccccc3)[C@@H](OCC(C)C)[C@H](C)OC2=O)c1OCOC(C)=O` [Compound F106]: the pest or weed control at 100 ppm (in the experiment with Leptosphaeria nodorum; in experiment [1]; with Cercospora beticola) was 80 to 100% throughout. The pest or weed control at 25 ppm fell in the range of 80 to 100% with Phakopsora pachyrhizi (setting [2]) and 0 to 80% in the experiment with Phakopsora pachyrhizi (setting [3]).
